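Method: 48-hour compound exposure of cells in 96-well plates, five concentrations, linear interpolation of endpoints. At the GI50, growth is halved.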 Calls of active or inactive are those of the source. Rule as the data show it: active = GI50 up to about 1.1 µM and inactive = higher.
Columns and labels:
Assay in all cases: growth of human tumour cells (NCI), 48 h
U-251 = test system: U-251
A549 = test system: A549
NCI-H23 = test system: NCI-H23
HOP-62 = test system: HOP-62
A498 = test system: A498
HCC 2998 = test system: HCC 2998
HCT-15 = test system: HCT-15
UACC-62 = test system: UACC-62
SF-295 = test system: SF-295
CCRF-CEM = test system: CCRF-CEM
OVCAR-4 = test system: OVCAR-4
PC-3 = test system: PC-3
SNB-75 = test system: SNB-75
MDA-MB-435 = test system: MDA-MB-435
M14 = test system: M14
SN12C = test system: SN12C
OVCAR-8 = test system: OVCAR-8
IGROV-1 = test system: IGROV-1
HOP-92 = test system: HOP-92
RXF 393 = test system: RXF 393

Row | SMILES | GI50 (U-251) | GI50 (A549) | GI50 (NCI-H23) | GI50 (HOP-62) | GI50 (A498) | GI50 (HCC 2998) | GI50 (HCT-15) [µM] | GI50 (UACC-62) | GI50 (SF-295) | GI50 (CCRF-CEM) | GI50 (OVCAR-4) | GI50 (PC-3) | GI50 (SNB-75) | GI50 (MDA-MB-435) | GI50 (M14) | GI50 (SN12C) | GI50 (OVCAR-8) | GI50 (IGROV-1) | GI50 (HOP-92) | GI50 (RXF 393)
1 | Cc1cccc(N/C(Sc2ccccc2)=C(/C(Cl)=C(Cl)Cl)[N+](=O)[O-])c1 | 15.4 µM (inactive) | 20 µM (inactive) | 20.1 µM (inactive) | 20.3 µM (inactive) | 16.8 µM (inactive) | 39.4 µM (inactive) | 15.3 | 20.3 µM (inactive) | 17.1 µM (inactive) | 27 µM (inactive) | 17.5 µM (inactive) | 27 µM (inactive) | 26.1 µM (inactive) | 17.7 µM (inactive) | 18.8 µM (inactive) | 15.3 µM (inactive) | 16.1 µM (inactive) |  |  | 
2 | O=c1cc(-c2ccccc2)[nH]c2cccc(S)c12 | 0.182 µM (active) | 0.44 µM (active) | 0.445 µM (active) | 0.331 µM (active) |  | 0.344 µM (active) | 0.344 | 0.155 µM (active) | 0.115 µM (active) | 0.177 µM (active) | 4.8 µM (inactive) | 0.123 µM (active) |  | 0.0299 µM (active) | 0.857 µM (active) | 0.462 µM (active) | 0.324 µM (active) | 0.341 µM (active) | 0.288 µM (active) | 0.164 µM (active)
3 | Nc1ccc(S(=O)(=O)Nc2nc3ccccc3nc2Nc2ccc(S(N)(=O)=O)cc2)cc1 | 27.7 µM (inactive) | 47.1 µM (inactive) | 20.5 µM (inactive) | 29.2 µM (inactive) |  |  | 37.7 | 30.8 µM (inactive) | 26.9 µM (inactive) | 48.8 µM (inactive) | 2.45 µM (inactive) | 34.9 µM (inactive) | 13.6 µM (inactive) | 49.3 µM (inactive) | 36.3 µM (inactive) | 34.6 µM (inactive) | 45.4 µM (inactive) | 21.8 µM (inactive) | 17.6 µM (inactive) | 20.8 µM (inactive)
4 | NC1CC(=O)c2cscc21 (configuration not stated) | > 100 µM (inactive) | 14.1 µM (inactive) | > 100 µM (inactive) | > 100 µM (inactive) |  |  | 25.4 |  | > 100 µM (inactive) | 16.3 µM (inactive) | > 100 µM (inactive) | 52.7 µM (inactive) | > 100 µM (inactive) | 24.1 µM (inactive) | 31.1 µM (inactive) | 27.6 µM (inactive) | 31 µM (inactive) | > 100 µM (inactive) | 23 µM (inactive) | > 100 µM (inactive)
5 | COc1c(-c2nc3ccc(N4CCN(C)CC4)nc3[nH]2)cc(OC)c2c1nc(CCl)n2C | 12.2 µM (inactive) | 27.8 µM (inactive) | 20.1 µM (inactive) | 21.4 µM (inactive) |  | 15.7 µM (inactive) | 26.3 | 10.4 µM (inactive) | 31.8 µM (inactive) | 25.2 µM (inactive) | 18.3 µM (inactive) | 11.2 µM (inactive) | 12.6 µM (inactive) | 16.1 µM (inactive) | 16.9 µM (inactive) | 20.9 µM (inactive) | 20.1 µM (inactive) | 18.4 µM (inactive) | 22.8 µM (inactive) | 16 µM (inactive)
6 | Cc1ccc2c(=O)c(C(=O)Nn3c(C)csc3=S)c[nH]c2n1 | > 100 µM (inactive) | > 100 µM (inactive) | > 100 µM (inactive) | > 100 µM (inactive) | > 100 µM (inactive) |  | > 100 | > 100 µM (inactive) | > 100 µM (inactive) | > 100 µM (inactive) | > 100 µM (inactive) | > 100 µM (inactive) |  | > 100 µM (inactive) | > 100 µM (inactive) | > 100 µM (inactive) | > 100 µM (inactive) | > 100 µM (inactive) |  | > 100 µM (inactive)
7 | CC1(C)OC[C@@H](O)[C@H](Br)CO1 | > 100 µM (inactive) |  | > 100 µM (inactive) | > 100 µM (inactive) | > 100 µM (inactive) | > 100 µM (inactive) | > 100 | > 100 µM (inactive) | > 100 µM (inactive) | > 100 µM (inactive) | > 100 µM (inactive) | > 100 µM (inactive) | > 100 µM (inactive) | > 100 µM (inactive) | > 100 µM (inactive) | > 100 µM (inactive) | > 100 µM (inactive) |  |  | > 100 µM (inactive)
8 | CCC(=O)C1(N2CCOCC2)CCN(CCCC(=O)c2ccc(F)cc2)CC1 | > 100 µM (inactive) | > 100 µM (inactive) | > 100 µM (inactive) | > 100 µM (inactive) | > 100 µM (inactive) | > 100 µM (inactive) | > 100 | > 100 µM (inactive) | > 100 µM (inactive) | > 100 µM (inactive) | > 100 µM (inactive) | > 100 µM (inactive) | > 100 µM (inactive) | > 100 µM (inactive) | > 100 µM (inactive) | > 100 µM (inactive) | > 100 µM (inactive) | > 100 µM (inactive) |  | > 100 µM (inactive)

Reference: ChEMBL document CHEMBL1201862, “PubChem BioAssay data set” (2004)
